The record followed here is patent US20250332131A1, “COMPOSITION FOR ACTIVATING NICOTINAMIDE PHOSPHORIBOSYLTRANSFERASE” (Yuki Gosei Kogyo Co., Ltd., priority 2024, published 2025).

The assay concerns miRNA contained in exosomes secreted from C2C12 cells. As to conditions: ratio of 1.5 or more compared to the control and signal value exceeding 100; Table 1, FIG. 5. The procedure:
In this example, miRNA in exosomes was analyzed by microarray.
The exosome solution purified in Example 2 was used for microarray analysis. The microarray experiment was outsourced to Kamakura Techno Science (Kanagawa, Japan). Based on the data obtained, samples with a ratio of 1.5 or more compared to the control and with either of the two samples with a signal value exceeding 100 were extracted as miRNAs with altered transcription levels.

The structures appear in SMILES notation.

On to `NCCC(=O)O` [β-alanine, 3-aminopropanoic acid], for which the “miRNA increased in exosomes of C2C12 cells” value is listed as “six RNAs were increased”.
